Results as given in ChEMBL document CHEMBL1201862, “PubChem BioAssay data set” (2004).
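The compound was tested at five concentrations on cells cultured in 96-well plates, with a 48-hour exposure period. At the GI50, growth is halved.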 Calls of active or inactive are those of the source. Cut-off read from the data, not from the text of the source: active = GI50 up to about 1.1 µM and inactive = higher.

Tests used:
Assay in all cases: NCI-60 cell line screen, 48 h
[1] = system: NCI-H23
[2] = system: OVCAR-3
[3] = system: RXF 393
[4] = system: HCT-116
[5] = system: SK-MEL-2
[6] = system: KM12
[7] = system: CAKI-1
[8] = system: MCF7
[9] = system: SK-OV-3
[10] = system: NCI/ADR-RES
[11] = system: NCI-H226
[12] = system: DU-145
[13] = system: OVCAR-8
[14] = system: UACC-257
[15] = system: A498
[16] = system: HCC 2998
[17] = system: HCT-15
[18] = system: IGROV-1
[19] = system: OVCAR-4
[20] = system: MDA-MB-231
[21] = system: T47D
[22] = system: HOP-62
[23] = system: PC-3
[24] = system: SK-MEL-5
[25] = system: EKVX
[26] = system: SK-MEL-28
[27] = system: K562
[28] = system: SNB-19
[29] = system: OVCAR-5
[30] = system: BT-549
[31] = system: TK-10
[32] = system: NCI-H522
[33] = system: MDA-MB-435
[34] = system: Malme-3M
[35] = system: SF-295
[36] = system: U-251
[37] = system: LOX IMVI
[38] = system: SN12C
[39] = system: HOP-92
[40] = system: SF-268
[41] = system: RPMI-8226
[42] = system: COLO 205
[43] = system: M14
[44] = system: MOLT-4
[45] = system: 786-0
[46] = system: SF-539
[47] = system: UACC-62
[48] = system: Hs-578T
[49] = system: SNB-75
[50] = system: MDA-N
[51] = system: CCRF-CEM
[52] = system: ACHN
[53] = system: A549
[54] = system: NCI-H460
[55] = system: SR
[56] = system: HT-29
[57] = system: UO-31
[58] = system: SW-620
[59] = system: HL-60

OC(C1CCC=NN1C(O)(C(F)(F)F)C(F)(F)F)(C(F)(F)F)C(F)(F)F (stereo not drawn)
GI50 [1]: > 10 µM (inactive) | GI50 [2]: > 10 µM (inactive) | GI50 [3]: > 10 µM (inactive) | GI50 [4]: > 10 µM (inactive) | GI50 [5]: > 10 µM (inactive) | GI50 [6]: > 10 µM (inactive) | GI50 [7]: > 10 µM (inactive) | GI50 [8]: > 10 µM (inactive) | GI50 [9]: > 10 µM (inactive) | GI50 [10]: > 10 µM (inactive) | GI50 [11]: > 10 µM (inactive) | GI50 [12]: > 10 µM (inactive) | GI50 [13]: > 10 µM (inactive) | GI50 [14]: > 10 µM (inactive) | GI50 [15]: > 10 µM (inactive) | GI50 [16]: > 10 µM (inactive) | GI50 [17]: > 10 µM | GI50 [18]: > 10 µM (inactive) | GI50 [19]: > 10 µM (inactive) | GI50 [20]: > 10 µM (inactive) | GI50 [21]: > 10 µM (inactive) | GI50 [22]: > 10 µM (inactive) | GI50 [23]: > 10 µM (inactive) | GI50 [24]: > 10 µM (inactive) | GI50 [25]: > 10 µM (inactive) | GI50 [26]: > 10 µM (inactive) | GI50 [27]: > 10 µM (inactive) | GI50 [28]: > 10 µM (inactive) | GI50 [29]: > 10 µM (inactive) | GI50 [30]: > 10 µM (inactive) | GI50 [31]: > 10 µM (inactive) | GI50 [32]: > 10 µM (inactive) | GI50 [33]: > 10 µM (inactive) | GI50 [34]: > 10 µM (inactive) | GI50 [35]: > 10 µM (inactive) | GI50 [36]: > 10 µM (inactive) | GI50 [37]: > 10 µM (inactive) | GI50 [38]: > 10 µM (inactive) | GI50 [39]: > 10 µM (inactive) | GI50 [40]: > 10 µM (inactive) | GI50 [41]: > 10 µM (inactive) | GI50 [42]: > 10 µM (inactive) | GI50 [43]: > 10 µM (inactive) | GI50 [44]: > 10 µM (inactive) | GI50 [45]: > 10 µM (inactive) | GI50 [46]: > 10 µM (inactive) | GI50 [47]: > 10 µM (inactive) | GI50 [48]: > 10 µM (inactive) | GI50 [49]: > 10 µM (inactive) | GI50 [50]: > 10 µM (inactive) | GI50 [51]: > 10 µM (inactive) | GI50 [52]: > 10 µM (inactive) | GI50 [53]: > 10 µM (inactive) | GI50 [54]: > 10 µM (inactive) | GI50 [55]: > 10 µM (inactive) | GI50 [56]: > 10 µM (inactive)

Cc1ccc([N+](=O)[O-])cc1S(=O)(=O)Nc1ccc(C2=NN(C(=O)c3ccccc3)C(c3cccs3)C2)cc1 (stereo not drawn)
GI50 [1]: 15.6 µM (inactive) | GI50 [2]: 13 µM (inactive) | GI50 [3]: 15.2 µM (inactive) | GI50 [4]: 22.3 µM (inactive) | GI50 [5]: 14.9 µM (inactive) | GI50 [6]: 32.7 µM (inactive) | GI50 [7]: 26.2 µM (inactive) | GI50 [8]: 18.1 µM (inactive) | GI50 [57]: 24 µM (inactive) | GI50 [9]: 20.6 µM (inactive) | GI50 [10]: 30.9 µM (inactive) | GI50 [11]: 21.5 µM (inactive) | GI50 [12]: 34.2 µM (inactive) | GI50 [13]: 22.4 µM (inactive) | GI50 [14]: 21.5 µM (inactive) | GI50 [15]: 10.5 µM (inactive) | GI50 [17]: 21 µM | GI50 [18]: 16.9 µM (inactive) | GI50 [19]: 25.6 µM (inactive) | GI50 [20]: 16.3 µM (inactive) | GI50 [21]: 9.42 µM (inactive) | GI50 [22]: 20.9 µM (inactive) | GI50 [23]: 21.9 µM (inactive) | GI50 [24]: 13.6 µM (inactive) | GI50 [25]: 21.5 µM (inactive) | GI50 [26]: 63.5 µM (inactive) | GI50 [58]: 45.5 µM (inactive) | GI50 [27]: 22.1 µM (inactive) | GI50 [28]: 33 µM (inactive) | GI50 [29]: 42.5 µM (inactive) | GI50 [30]: 25.3 µM (inactive) | GI50 [31]: 21.4 µM (inactive) | GI50 [32]: 12.9 µM (inactive) | GI50 [33]: 33.1 µM (inactive) | GI50 [34]: 19.1 µM (inactive) | GI50 [35]: 21 µM (inactive) | GI50 [36]: 20.8 µM (inactive) | GI50 [37]: 30.8 µM (inactive) | GI50 [38]: 22.4 µM (inactive) | GI50 [39]: 12.6 µM (inactive) | GI50 [40]: 20 µM (inactive) | GI50 [41]: 31.6 µM (inactive) | GI50 [42]: 16.9 µM (inactive) | GI50 [43]: 24.1 µM (inactive) | GI50 [44]: 20.4 µM (inactive) | GI50 [45]: 17.9 µM (inactive) | GI50 [46]: 18.2 µM (inactive) | GI50 [48]: 27 µM (inactive) | GI50 [49]: 20.2 µM (inactive) | GI50 [50]: 23.8 µM (inactive) | GI50 [51]: 37.8 µM (inactive) | GI50 [52]: 25.4 µM (inactive) | GI50 [59]: 26.3 µM (inactive) | GI50 [53]: 19.5 µM (inactive) | GI50 [55]: 28.8 µM (inactive) | GI50 [56]: 26.3 µM (inactive)

N=C(N)N/N=C(\c1ccc(Cl)cc1)C1CC1
GI50 [1]: 27.1 µM (inactive) | GI50 [2]: 19.4 µM (inactive) | GI50 [3]: 33.9 µM (inactive) | GI50 [4]: 16 µM (inactive) | GI50 [5]: 18.3 µM (inactive) | GI50 [6]: 18.5 µM (inactive) | GI50 [7]: 39 µM (inactive) | GI50 [8]: 17.1 µM (inactive) | GI50 [57]: 24.6 µM (inactive) | GI50 [9]: 27.5 µM (inactive) | GI50 [10]: 25.4 µM (inactive) | GI50 [11]: 16.3 µM (inactive) | GI50 [12]: 22.6 µM (inactive) | GI50 [13]: 20.7 µM (inactive) | GI50 [14]: 14.5 µM (inactive) | GI50 [15]: 14.4 µM (inactive) | GI50 [16]: 7 µM (inactive) | GI50 [17]: 19 µM | GI50 [18]: 16.2 µM (inactive) | GI50 [19]: 33 µM (inactive) | GI50 [20]: 18.5 µM (inactive) | GI50 [21]: 19.5 µM (inactive) | GI50 [22]: 19 µM (inactive) | GI50 [23]: 16.2 µM (inactive) | GI50 [24]: 15.6 µM (inactive) | GI50 [25]: 23.9 µM (inactive) | GI50 [26]: 19.3 µM (inactive) | GI50 [58]: 18.4 µM (inactive) | GI50 [27]: 34.8 µM (inactive) | GI50 [28]: 29 µM (inactive) | GI50 [29]: 17.9 µM (inactive) | GI50 [30]: 24.6 µM (inactive) | GI50 [31]: 16.3 µM (inactive) | GI50 [32]: 14.8 µM (inactive) | GI50 [33]: 16.9 µM (inactive) | GI50 [34]: 14.9 µM (inactive) | GI50 [35]: 21.3 µM (inactive) | GI50 [36]: 14.2 µM (inactive) | GI50 [37]: 16.4 µM (inactive) | GI50 [38]: 19.1 µM (inactive) | GI50 [39]: 22.3 µM (inactive) | GI50 [40]: 28.9 µM (inactive) | GI50 [41]: 18.5 µM (inactive) | GI50 [42]: 17.2 µM (inactive) | GI50 [43]: 15.4 µM (inactive) | GI50 [45]: 16.9 µM (inactive) | GI50 [46]: 17.2 µM (inactive) | GI50 [47]: 15.9 µM (inactive) | GI50 [48]: 25 µM (inactive) | GI50 [49]: 22.2 µM (inactive) | GI50 [50]: 16.1 µM (inactive) | GI50 [52]: 21.8 µM (inactive) | GI50 [53]: 32.4 µM (inactive) | GI50 [54]: 15.6 µM (inactive) | GI50 [55]: 11.4 µM (inactive) | GI50 [56]: 16.5 µM (inactive)
